Test results reported in ChEMBL document CHEMBL4265942, “Four new antitumor metabolites isolated from a mutant 3-f-31 strain derived from Penicillium purpurogenum G59” (Eur J Med Chem, 2018).
Calls of active or inactive are those of the source. The calls are words filed in the database; no cut-off is given here.

Columns and labels:
L929 = assay: Cytotoxicity against mouse L929 cells assessed as inhibition of cell growth after 72 hrs by MTT assay; format: cell-based; conditions: L929, 72 h
A549 [1] = assay: Antiproliferative activity against human A549 cells assessed as inhibition of cell growth after 72 hrs by sulforhodamine B assay; format: functional, cell-based; conditions: A549, 72 h
HeLa [2] = assay: Antiproliferative activity against human HeLa cells assessed as inhibition of cell growth after 72 hrs by sulforhodamine B assay; format: functional, cell-based
MCF7 [3] = assay: Antiproliferative activity against human MCF7 cells assessed as inhibition of cell growth after 72 hrs by sulforhodamine B assay; format: functional, cell-based; conditions: MCF7, 72 h
HCT-116 [4] = assay: Antiproliferative activity against human HCT116 cells assessed as inhibition of cell growth after 72 hrs by sulforhodamine B assay; format: functional, cell-based; conditions: HCT-116, 72 h
HepG2 [5] = assay: Antiproliferative activity against human HepG2 cells assessed as inhibition of cell growth after 72 hrs by sulforhodamine B assay; format: functional, cell-based; conditions: HepG2, 72 h
NCI-H1975 [6] = assay: Antiproliferative activity against human NCI-H1975 cells assessed as inhibition of cell growth after 72 hrs by sulforhodamine B assay; format: functional, cell-based; conditions: NCI-H1975, 72 h
HL-60 [7] = assay: Antiproliferative activity against human HL60 cells assessed as inhibition of cell growth after 72 hrs by MTT assay; format: functional, cell-based; conditions: HL-60, 72 h
K562 [8] = assay: Antiproliferative activity against human K562 cells assessed as inhibition of cell growth after 72 hrs by MTT assay; format: functional, cell-based; conditions: K562, 72 h
LS180 [9] = assay: Antiproliferative activity against human LS180 cells assessed as inhibition of cell growth after 72 hrs by sulforhodamine B assay; format: functional, cell-based; conditions: LS180, 72 h
SW480 [10] = assay: Antiproliferative activity against human SW480 cells assessed as inhibition of cell growth after 72 hrs by sulforhodamine B assay; format: functional, cell-based; conditions: SW480, 72 h
HT-29 [11] = assay: Antiproliferative activity against human HT-29 cells assessed as inhibition of cell growth after 72 hrs by sulforhodamine B assay; format: functional, cell-based; conditions: HT-29, 72 h
PC-3 [12] = assay: Antiproliferative activity against human PC3 cells assessed as inhibition of cell growth after 72 hrs by sulforhodamine B assay; format: functional, cell-based; conditions: PC-3, 72 h
BXPC-3 [13] = assay: Antiproliferative activity against human BxPC3 cells assessed as inhibition of cell growth after 72 hrs by sulforhodamine B assay; format: functional, cell-based; conditions: BXPC-3, 72 h
PANC-1 [14] = assay: Antiproliferative activity against human PANC1 cells assessed as inhibition of cell growth after 72 hrs by sulforhodamine B assay; format: functional, cell-based; conditions: PANC-1, 72 h
HCT-116 [15] = assay: Down regulation of HSP90 expression in human HCT116 cells after 48 hrs by Western blot analysis; format: functional, cell-based
HCT-116 [16] = assay: Down regulation of STAT3 expression in human HCT116 cells after 48 hrs by Western blot analysis; format: functional, cell-based
HCT-116 [17] = assay: Down regulation of phosphorylated STAT3 expression in human HCT116 cells after 48 hrs by Western blot analysis; format: functional, cell-based
HCT-116 [18] = assay: Down regulation of AKT expression in human HCT116 cells after 48 hrs by Western blot analysis; format: functional, cell-based
HCT-116 [19] = assay: Down regulation of Raf1 expression in human HCT116 cells after 48 hrs by Western blot analysis; format: functional, cell-based
HCT-116 [20] = assay: Down regulation of ERK1/2 expression in human HCT116 cells after 48 hrs by Western blot analysis; format: functional, cell-based
HCT-116 [21] = assay: Down regulation of survivin expression in human HCT116 cells after 48 hrs by Western blot analysis; format: functional, cell-based
A549 [22] = assay: Antiproliferative activity against human A549 cells assessed as inhibition of cell growth at 100 uM after 72 hrs by sulforhodamine B assay relative to control; format: functional; conditions: A549, 72 h
HeLa [23] = assay: Antiproliferative activity against human HeLa cells assessed as inhibition of cell growth at 100 uM after 72 hrs by sulforhodamine B assay relative to control; format: functional
MCF7 [24] = assay: Antiproliferative activity against human MCF7 cells assessed as inhibition of cell growth at 100 uM after 72 hrs by sulforhodamine B assay relative to control; format: functional; conditions: MCF7, 72 h
HCT-116 [25] = assay: Antiproliferative activity against human HCT116 cells assessed as inhibition of cell growth at 100 uM after 72 hrs by sulforhodamine B assay relative to control; format: functional; conditions: HCT-116, 72 h
HepG2 [26] = assay: Antiproliferative activity against human HepG2 cells assessed as inhibition of cell growth at 100 uM after 72 hrs by sulforhodamine B assay relative to control; format: functional; conditions: HepG2, 72 h
NCI-H1975 [27] = assay: Antiproliferative activity against human NCI-H1975 cells assessed as inhibition of cell growth at 100 uM after 72 hrs by sulforhodamine B assay relative to control; format: functional; conditions: NCI-H1975, 72 h
HL-60 [28] = assay: Antiproliferative activity against human HL60 cells assessed as inhibition of cell growth at 100 uM after 72 hrs by MTT assay relative to control; format: functional; conditions: HL-60, 72 h
K562 [29] = assay: Antiproliferative activity against human K562 cells assessed as inhibition of cell growth at 100 uM after 72 hrs by MTT assay relative to control; format: functional; conditions: K562, 72 h
LS180 [30] = assay: Antiproliferative activity against human LS180 cells assessed as inhibition of cell growth at 100 uM after 72 hrs by sulforhodamine B assay relative to control; format: functional; conditions: LS180, 72 h
SW480 [31] = assay: Antiproliferative activity against human SW480 cells assessed as inhibition of cell growth at 100 uM after 72 hrs by sulforhodamine B assay relative to control; format: functional; conditions: SW480, 72 h
HT-29 [32] = assay: Antiproliferative activity against human HT-29 cells assessed as inhibition of cell growth at 100 uM after 72 hrs by sulforhodamine B assay relative to control; format: functional; conditions: HT-29, 72 h
PC-3 [33] = assay: Antiproliferative activity against human PC3 cells assessed as inhibition of cell growth at 100 uM after 72 hrs by sulforhodamine B assay relative to control; format: functional; conditions: PC-3, 72 h
BXPC-3 [34] = assay: Antiproliferative activity against human BxPC3 cells assessed as inhibition of cell growth at 100 uM after 72 hrs by sulforhodamine B assay relative to control; format: functional; conditions: BXPC-3, 72 h
PANC-1 [35] = assay: Antiproliferative activity against human PANC1 cells assessed as inhibition of cell growth at 100 uM after 72 hrs by sulforhodamine B assay relative to control; format: functional; conditions: PANC-1, 72 h
HCT-116 [36] = assay: Upregulation of p53 expression in human HCT116 cells at 12.5 ug/ml after 48 hrs by Western blot analysis; format: functional, cell-based
HCT-116 [37] = assay: Down regulation of survivin expression in human HCT116 cells at 12.5 ug/ml after 48 hrs by Western blot analysis; format: functional, cell-based

CCCCCC[C@@H](C)C[C@@H](C)/C=C/C(=O)N[C@@H]1C[C@@]2(O[C@@H]1O)[C@@H]1O[C@@H]1[C@](O)(CC(C)=O)[C@@H]1O[C@@H]12
IC50 (L929): 4.68 µM
IC50 (A549 [1]): 9.83 µM
IC50 (HeLa [2]): 6.25 µM
IC50 (MCF7 [3]): 4.11 µM
IC50 (HCT-116 [4]): 2.54 µM
IC50 (HepG2 [5]): 6.58 µM
IC50 (NCI-H1975 [6]): 3.37 µM
IC50 (HL-60 [7]): 3.13 µM
IC50 (K562 [8]): 5.16 µM
IC50 (LS180 [9]): 17 µM
IC50 (SW480 [10]): 3.57 µM
IC50 (HT-29 [11]): 10.2 µM
IC50 (PC-3 [12]): 7.6 µM
IC50 (BXPC-3 [13]): 7.3 µM
IC50 (PANC-1 [14]): 4.42 µM
Activity (HCT-116 [15]): Dose-dependent effect
Activity (HCT-116 [16]): Dose-dependent effect
Activity (HCT-116 [17]): Dose-dependent effect
Activity (HCT-116 [18]): Dose-dependent effect
Activity (HCT-116 [19]): Dose-dependent effect
Activity (HCT-116 [20]): Dose-dependent effect
Activity (HCT-116 [21]): Dose-dependent effect

O=c1[nH]cc(F)c(=O)[nH]1 [FLUOROURACIL]
inhibition at 100 µM (A549 [22]): 41 to 95%
inhibition at 100 µM (HeLa [23]): 41 to 95%
inhibition at 100 µM (MCF7 [24]): 41 to 95%
inhibition at 100 µM (HCT-116 [25]): 41 to 95%
inhibition at 100 µM (HepG2 [26]): 41 to 95%
inhibition at 100 µM (NCI-H1975 [27]): 41 to 95%
inhibition at 100 µM (HL-60 [28]): 41 to 95%
inhibition at 100 µM (K562 [29]): 41 to 95%
inhibition at 100 µM (LS180 [30]): 41 to 95%
inhibition at 100 µM (SW480 [31]): 41 to 95%
inhibition at 100 µM (HT-29 [32]): 41 to 95%
inhibition at 100 µM (PC-3 [33]): 41 to 95%
inhibition at 100 µM (BXPC-3 [34]): 41 to 95%
inhibition at 100 µM (PANC-1 [35]): 41 to 95%

COc1cc([C@@H]2c3cc4c(cc3[C@@H](O[C@@H]3O[C@@H]5CO[C@@H](C)O[C@H]5[C@H](O)[C@H]3O)[C@H]3COC(=O)[C@H]23)OCO4)cc(OC)c1O
Activity (HCT-116 [36]): Active
Activity (HCT-116 [37]): Active
